≈ marks a conversion by molar mass, not a printed value.
Experiments:
Fusarium solani = format: cell-based; details: 37° C. for 20 hours; tested twice, first/second value where not matched
Procedure: (§1) Further, with respect to not only the above-described strains but also various other strains, the “minimum inhibitory concentration (MIC)” was measured as follows. MIC is the lowest concentration of an agent that may inhibit the growth of a bacterium. MIC is used as a parameter for the efficacy of an antibacterial agent, for the strength of bacterial sensitivity, or the like. The bacteria can grow (proliferate) when the concentration is not higher than MIC, and cannot grow when the concentration is higher than MIC. Its measurement is carried out according to a method defined as a standard method by Japanese Society of Chemotherapy or CLINICAL AND LABORATORY […] (CLSI), but, in this Example, its measurement was carried out by a broth microdilution method in accordance with “M100-S17/M7-A7” (Performance Standards for Antimicrobial Susceptibility Testing; Seventeenth Informational Supplement, Vol. 27 No. 1) published by CLSI on January, 2007. That is, sensitivity test of agents was carried out using a microtiter plate or test tubes.
(§2) The bacteria were cultured in liquid media for 4 to 6 hours, and thereafter absorbances at A600 were measured. Bacterial suspensions were diluted with Mueller-Hinton broth (MHB) according to McFarland #0.5. Each strain was added so as to attain about 10^5 CFU/ml (final concentration). Each peptide was prepared to an optional concentration, and the solutions were serially diluted from the concentration. The polypeptide at each concentration stage was added to a microplate or test tubes, and the bacterial suspension was added thereto. Chloramphenicol, amphotericin B, ciprofloxacin, meropenem (MEPM), ciprofloxacin (CPFX), tobramycin (TOB) and oxacillin (OX) were used as positive controls. The plate was incubated at 37° C. for 20 hours, and the lowest concentration where bacterial growth was inhibited was regarded as the minimum inhibitory concentration.

Trichophyton rubrum = format: cell-based; details: 37° C. for 20 hours; tested twice, first/second value where not matched
Procedure: as §1, §2

Candida krusei = format: cell-based; details: 37° C. for 20 hours; tested twice, first/second value where not matched
Procedure: as §1, §2

[1] = tested on: Trichophyton mentagrophytes; format: cell-based; details: 37° C. for 20 hours; tested twice, first/second value where not matched
Procedure: as §1, §2

[2] = tested on: Penicillium glabrum (Penicillium frequentans); format: cell-based; details: 37° C. for 20 hours; tested twice, first/second value where not matched
Procedure: as §1, §2

Alternaria alternata = format: cell-based; details: 37° C. for 20 hours; tested twice, first/second value where not matched
Procedure: as §1, §2

Staphylococcus aureus = assay: microbe, parasite or virus in culture; format: cell-based; details: 37° C. for 20 hours, tested twice, first/second value where not matched
Procedure: as §1, §2

MRSA (clinical strain 1) = assay: microbe, parasite or virus in culture; format: cell-based; details: Staphylococcus aureus, 37° C. for 20 hours, tested twice, first/second value where not matched
Procedure: as §1, §2

MSSA (clinical strain 1) = assay: microbe, parasite or virus in culture; format: cell-based, Staphylococcus aureus; details: 37° C. for 20 hours; tested twice, first/second value where not matched
Procedure: as §1, §2

MRSA (clinical strain 2) = assay: microbe, parasite or virus in culture; format: cell-based, Staphylococcus aureus; details: Staphylococcus aureus, MRSA; 37° C. for 20 hours; tested twice, first/second value where not matched
Procedure: as §1, §2

MSSA (clinical strain 2) = assay: microbe, parasite or virus in culture; format: cell-based, Staphylococcus aureus; details: Staphylococcus aureus, MSSA; 37° C. for 20 hours; tested twice, first/second value where not matched
Procedure: as §1, §2

[3] = tested on: Staphylococcus epidermidis; assay: MIC measurement, broth microdilution; format: cell-based; details: Staphylococcus epidermidis; 37° C. for 20 hours; tested twice, first/second value where not matched
Procedure: as §1, §2

MIC, Fusarium solani (Fusarium solani)	MIC, Trichophyton rubrum (Trichophyton rubrum)	MIC, Candida krusei (Candida krusei)	MIC, Trichophyton mentagrophytes [1]	MIC, Penicillium glabrum (Penicillium frequentans) [2]	MIC, Alternaria alternata (Alternaria alternata)	Compound	MIC (Staphylococcus aureus)	MIC (MRSA (clinical strain 1))	MIC, MSSA (clinical strain 1) (MSSA (clinical strain 1))	MIC (MRSA (clinical strain 2))	MIC (MSSA (clinical strain 2))	MIC [3]
1 µg/mL (≈ 1.08 µM)	0.25 µg/mL (≈ 0.271 µM)	2 µg/mL (≈ 2.16 µM)	0.125 µg/mL (≈ 0.135 µM)	0.125 µg/mL (≈ 0.135 µM)	1 µg/mL (≈ 1.08 µM)	C[C@@H]1[C@H](O)[C@@H](C)/C=C/C=C/C=C/C=C/C=C/C=C/C=C/[C@H](O[C@@H]2O[C@H](C)[C@@H](O)[C@H](N)[C@@H]2O)C[C@@H]2O[C@](O)(C[C@@H](O)C[C@@H](O)[C@H](O)CC[C@@H](O)C[C@@H](O)CC(=O)O[C@H]1C)C[C@H](O)[C@H]2C(=O)O [Amphotericin B, amphotericin B]	–	–	–	–	–	–
–	–	–	–	–	–	Cc1onc(-c2ccccc2)c1C(=O)N[C@@H]1C(=O)N2[C@@H]1SC(C)(C)[C@@H]2C(=O)O [OX, oxacillin]	0.15 to 0.5 µg/mL (≈ 0.374 to 1.25 µM)	< 4 µg/mL	3/8	> 8 µg/mL	< 2 µg/mL	0.15 to 0.5 µg/mL (≈ 0.374 to 1.25 µM)
